28 molecules from US20060004197A1, “Sulfonamide-based compounds as protein tyrosine kinase inhibitors” (priority 2004, published 2006) can be followed below.

Read-outs that look alike come from different tables or passages of the source.

Type in all cases: biochemical
Assay [1] concerns the target FGF receptor (FGFr). In words: FGFr tyrosine kinase activity, poly E4Y / 32P-ATP phosphorylation assay.
Assay [2] addresses Recombinant Csk (Homo sapiens, UniProt P41240). Put plainly: Csk tyrosine kinase activity, poly E4Y / 32P-ATP phosphorylation assay.
Assay [3] addresses T1, Recombinant human Src (Homo sapiens, UniProt P12931).
T1 construct: made in house; host or cells: baculovirus-insect cell system
Put plainly: Src tyrosine kinase activity, poly E4Y / 32P-ATP phosphorylation assay. To be noted: for inhibition at 15 µg/mL: compound at 15 μg/mL.

The mark [4] stands for this setting: Table 2, Formula I compounds, NI = no inhibition at 100 μg/mL.
Setting [5] is: Table 3, Formula II compounds, NI = no inhibition at 100 μg/mL.
Where [6] appears, read: poly E4Y / 32P-ATP, Formula IV compounds.
The mark [7] stands for this setting: Table 4, Formula III compounds, NI = no inhibition at 100 μg/mL.

Chain of Recombinant Csk (P41240 whole entry, species assumed): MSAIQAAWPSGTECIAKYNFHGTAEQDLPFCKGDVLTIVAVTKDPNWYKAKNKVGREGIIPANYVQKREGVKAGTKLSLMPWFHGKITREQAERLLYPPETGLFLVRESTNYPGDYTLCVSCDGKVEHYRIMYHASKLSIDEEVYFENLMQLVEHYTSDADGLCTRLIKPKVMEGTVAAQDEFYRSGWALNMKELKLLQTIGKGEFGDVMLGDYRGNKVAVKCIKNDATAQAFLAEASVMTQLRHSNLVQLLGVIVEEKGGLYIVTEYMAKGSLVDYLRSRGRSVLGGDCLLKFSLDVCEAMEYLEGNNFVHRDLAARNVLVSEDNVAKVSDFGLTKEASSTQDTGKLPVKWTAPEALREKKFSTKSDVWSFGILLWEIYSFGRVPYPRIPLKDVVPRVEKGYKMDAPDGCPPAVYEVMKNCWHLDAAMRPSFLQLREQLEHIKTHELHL
T1 sequence (P12931 whole entry): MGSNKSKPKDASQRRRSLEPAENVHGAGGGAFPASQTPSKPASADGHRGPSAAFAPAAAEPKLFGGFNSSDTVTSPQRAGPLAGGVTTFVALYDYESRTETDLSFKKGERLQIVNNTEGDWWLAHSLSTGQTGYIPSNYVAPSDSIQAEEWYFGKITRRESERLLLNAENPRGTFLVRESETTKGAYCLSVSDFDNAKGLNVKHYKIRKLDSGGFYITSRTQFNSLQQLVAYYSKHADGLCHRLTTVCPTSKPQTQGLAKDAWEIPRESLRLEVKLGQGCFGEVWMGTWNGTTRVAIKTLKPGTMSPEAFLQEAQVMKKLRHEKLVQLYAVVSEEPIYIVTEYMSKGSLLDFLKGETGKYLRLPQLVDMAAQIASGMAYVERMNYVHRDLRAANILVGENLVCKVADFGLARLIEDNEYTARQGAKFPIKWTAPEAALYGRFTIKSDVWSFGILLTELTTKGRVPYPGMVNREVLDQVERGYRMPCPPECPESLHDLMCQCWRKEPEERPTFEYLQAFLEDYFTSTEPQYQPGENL

As usually defined, the IC50 is the midpoint of a concentration-inhibition curve. With `Cc1ccc(S(=O)(=O)Nc2cc(SCc3ccco3)c([N+](=O)[O-])cc2NS(=O)(=O)c2ccc(C)cc2)cc1` [Compound 4p, N-[4-(furan-2-ylmethylsulfanyl)-5-nitro-2-(4-toluenesulfonylamino)-phenyl]-4-toluenesulfonamide], the IC50 in assay [1] (setting [4]) was 7.3 µM; in assay [2] (setting [4]) it was 11.3 µM; in assay [3] (setting [4]), 1.6 µM.
On to `Cc1ccc(S(=O)(=O)Nc2ccc(SCc3ccccc3Cl)cc2NS(=O)(=O)c2ccc(C)cc2)cc1` [Compound 15g, N-[4-(2-chloro-benzylsulfanyl)-2-(4-toluenesulfonylamino)-phenyl]-4-toluenesulfonamide], for which, in assay [1] (setting [5]), the “IC50 (μM) FGFr” value is reported as “NI (NI = no inhibition at 100 μg/mL)”. Further, the IC50 is over 174 µM in assay [2] (setting [5]) and 11 µM in assay [3] (setting [5]).
For `COc1ccc(Oc2ccc(NS(=O)(=O)c3ccc(C)cc3)c(O)c2)cc1` [Compound 59, N-[2-hydroxy-4-(4-methoxy-phenoxy)-phenyl]-4-toluenesulfonamide], the IC50 in assay [1] (setting [6]) was 65 µM; in assay [2] (setting [6]), over 259 µM; in assay [3] (setting [6]) it was 65 µM.
For `Cc1ccc(S(=O)(=O)Nc2cc(Sc3ccccc3C)c([N+](=O)[O-])cc2NS(=O)(=O)c2ccc(C)cc2)cc1` [Compound 4j, N-[5-nitro-2-(4-toluenesulfonylamino)-4-(o-tolylsulfanyl)-phenyl]-4-toluenesulfonamide], the figures for the IC50 in assay [1] (setting [4]), in assay [2] (setting [4]) and in assay [3] (setting [4]) were 8.6 µM, 12 µM and 1.7 µM, respectively.
In the case of `COc1ccc(OCc2ccc(OC)c(NS(=O)(=O)c3ccc(C)cc3)c2)cc1` [Compound 66, N-[2-methoxy-5-(4-methoxy-phenoxymethyl)-phenyl]-4-toluenesulfonamide], the IC50 was 162 µM in assay [1] (setting [6]), over 242 µM in assay [2] (setting [6]) and 119 µM in assay [3] (setting [6]).
As for `Cc1ccc(C(=O)Nc2cc([N+](=O)[O-])c(Sc3ccc(Cl)cc3)cc2N)cc1` [Compound 56, N-[2-amino-4-(4-chloro-phenylsulfanyl)-5-nitro-phenyl]-4-toluamide], the IC50 in assay [1] (setting [6]) is 410 µM; in assay [2] (setting [6]), over 242 µM; in assay [3] (setting [6]) it was over 242 µM.
For the molecule `Cc1ccc(C(=O)Nc2cc(Sc3ccc(Cl)cc3)c([N+](=O)[O-])cc2NC(=O)c2ccc(C)cc2)cc1` [Compound 51, N-[4-(4-chloro-phenylsulfanyl)-5-nitro-2-(4-toluoylamino)-phenyl]-4-toluamide], the concentration for half-maximal inhibition (IC50) in assay [1] (setting [6]) turned out to be 40 µM; in assay [2] (setting [6]), 51 µM; in assay [3] (setting [6]), 153 µM.
Consider `Cc1ccc(Sc2cc(NS(=O)(=O)c3ccc(C)cc3)c(NS(=O)(=O)c3ccc(C)cc3)cc2[N+](=O)[O-])cc1` [Compound 4i, N-[5-nitro-2-(4-toluenesulfonylamino)-4-(p-tolylsulfanyl)-phenyl]-4-toluenesulfonamide], for which the results for the IC50 in assay [1] (setting [4]), in assay [2] (setting [4]) and in assay [3] (setting [4]) were 5.1 µM, 10.3 µM and 1.7 µM, respectively.
For the molecule `COc1ccc(Oc2ccc(NS(=O)(=O)c3ccc(F)cc3)c(NS(=O)(=O)c3ccc(F)cc3)c2)cc1` [Compound 12d, 4-fluoro-N-[2-(4-fluoro-benzenesulfonylamino)-4-(4-methoxy-phenoxy)-phenyl]-benzenesulfonamide], the IC50 in assay [1] (setting [5]) was determined as 35 µM; in assay [2] (setting [5]), 73 µM; in assay [3] (setting [5]), 24 µM.
Consider `COc1ccc(Oc2ccc(NS(=O)(=O)c3ccccc3)c(NS(=O)(=O)c3ccccc3)c2)cc1` [Compound 12n, N-[2-benzenesulfonylamino-4-(4-methoxy-phenoxy)-phenyl]-benzenesulfonamide], for which the concentration for half-maximal inhibition (IC50) in assay [1] (setting [5]) is 24 µM; in assay [2] (setting [5]), over 196 µM; in assay [3] (setting [5]), 29 µM.
Take `Cc1ccc(S(=O)(=O)Nc2cc(Br)c(Br)cc2NS(=O)(=O)c2ccc(C)cc2)cc1` [Compound 38a, N-[4,5-dibromo-2-(4-toluenesulfonylamino)-phenyl]-4-toluenesulfonamide]: the 50% inhibitory concentration (IC50) in assay [1] (setting [7]) is 110 µM; in assay [2] (setting [7]), over 174 µM; in assay [3] (setting [7]), 31 µM.
Consider `COc1ccc(Oc2ccc(NS(=O)(=O)c3ccc(C)cc3)c(OCC(=O)O)c2)cc1` [Compound 65, [5-(4-methoxy-phenoxy)-2-(4-toluenesulfonylamino)-phenoxy]-acetic acid], for which the “IC50 (μM) FGFr” value in assay [1] (setting [6]) is on record as “NI (NI = no inhibition at 100 μg/mL)”. Further, the 50% inhibitory concentration (IC50) in assay [2] (setting [6]) is over 225 µM; in assay [3] (setting [6]), 169 µM.
For the molecule `Cc1ccc(S(=O)(=O)Nc2ccc(-n3cccn3)cc2NS(=O)(=O)c2ccc(C)cc2)cc1` [Compound 17a, N-[4-(pyrazol-1-yl)-2-(4-toluenesulfonylamino)-phenyl]-4-toluenesulfonamide], the IC50 came to 64 µM in assay [1] (setting [5]), 214 µM in assay [2] (setting [5]) and 46 µM in assay [3] (setting [5]).
As for `Cc1ccc(S(=O)(=O)Nc2cc(SCc3ccc(Cl)cc3)c([N+](=O)[O-])cc2NS(=O)(=O)c2ccc(C)cc2)cc1` [Compound 4q, N-[4-(4-chloro-benzylsulfanyl)-5-nitro-2-(4-toluenesulfonylamino)-phenyl]-4-toluenesulfonamide], the concentration for half-maximal inhibition (IC50) in assay [1] (setting [4]) amounted to 2.7 µM; in assay [2] (setting [4]), 4.1 µM; in assay [3] (setting [4]) it was 1 µM.
In the case of `Cc1ccc(S(=O)(=O)Nc2cc(SCc3ccccc3)c([N+](=O)[O-])cc2NS(=O)(=O)c2ccc(C)cc2)cc1` [Compound 4t, N-[4-benzylsulfanyl-5-nitro-2-(4-toluenesulfonylamino)-phenyl]-4-toluenesulfonamide], the concentration for half-maximal inhibition (IC50) in assay [2] (setting [4]) amounted to 5.5 µM; in assay [3] (setting [4]), 1.2 µM.
As for `Cc1ccc(S(=O)(=O)Nc2ccc(N3CCOCC3)cc2NS(=O)(=O)c2ccc(C)cc2)cc1` [Compound 17f, N-[4-(morpholin-4-yl)-2-(4-toluenesulfonylamino)-phenyl]-4-toluenesulfonamide], the concentration for half-maximal inhibition (IC50) in assay [1] (setting [5]) was 50 µM; in assay [2] (setting [5]) it was over 199 µM; in assay [3] (setting [5]) it was 38 µM.
Take `COC(=O)c1cc(Oc2ccc(OC)cc2)ccc1NS(=O)(=O)c1ccc(C)cc1` [Compound 67, methyl 5-(4-methoxy-phenoxy)-2-(4-toluenesulfonylamino)-benzoate]: the IC50 in assay [2] (setting [6]) and in assay [3] (setting [6]) was over 234 µM each time.
Take `Cc1ccc(S(=O)(=O)Nc2ccc(-n3ccnc3)cc2NS(=O)(=O)c2ccc(C)cc2)cc1` [Compound 17d, N-[4-(imidazol-1-yl)-2-(4-toluenesulfonylamino)-phenyl]-4-toluenesulfonamide]: the IC50 in assay [1] (setting [5]) is 3.1 µM; in assay [2] (setting [5]), over 207 µM; in assay [3] (setting [5]) it was 51 µM.
Consider `COc1cccc(Sc2cc(NS(=O)(=O)c3ccc(C)cc3)c(NS(=O)(=O)c3ccc(C)cc3)cc2[N+](=O)[O-])c1` [Compound 4c, N-[4-(3-methoxy-phenylsulfanyl)-5-nitro-2-(4-toluenesulfonylamino)-phenyl]-4-toluenesulfonamide], for which the results for the IC50 in assay [1] (setting [4]), in assay [2] (setting [4]) and in assay [3] (setting [4]) were 7.5 µM, 8.3 µM and 3.5 µM, respectively.
As to `COc1ccc(Oc2ccc(NS(=O)(=O)c3ccc(C)cc3)c(OCC(O)CO)c2)cc1` (stereo not shown) [Compound 64, N-[2-(2,3-dihydroxy-propoxy)-4-(4-methoxy-phenoxy)-phenyl]-4-toluenesulfonamide], the “IC50 (μM) FGFr” value in assay [1] (setting [6]) is recorded as “NI (NI = no inhibition at 100 μg/mL)”. Also, the IC50 in assay [2] (setting [6]) is over 218 µM; in assay [3] (setting [6]), 189 µM.
Consider `Cc1ccc(S(=O)(=O)Nc2ccc(N(C)C)cc2NS(=O)(=O)c2ccc(C)cc2)cc1` [Compound 17c, N-[4-dimethylamino-2-(4-toluenesulfonylamino)-phenyl]-4-toluenesulfonamide], for which the IC50 is 98 µM in assay [1] (setting [5]), over 218 µM in assay [2] (setting [5]) and 39 µM in assay [3] (setting [5]).
As to `COc1ccc(Oc2ccc(NS(=O)(=O)c3ccc([N+](=O)[O-])cc3)c(NS(=O)(=O)c3ccc([N+](=O)[O-])cc3)c2)cc1` [Compound 12r, N-[4-(4-methoxy-phenoxy)-2-(4-nitrobenzenesulfonylamino)-phenyl]-4-nitrobenzenesulfonamide], the half-inhibitory concentration (IC50) in assay [2] (setting [5]) was over 167 µM; in assay [3] (setting [5]) it was 6.6 µM.
Turning to `COc1ccc(Oc2ccc(NS(=O)(=O)c3ccc(C)cc3)c(OP(=O)(O)O)c2)cc1` [Compound 43, [5-(4-methoxy-phenoxy)-2-(4-toluenesulfonylamino)-phenyl]-phosphate], the concentration for half-maximal inhibition (IC50) is over 215 µM in assay [2] (setting [6]) and 13 µM in assay [3] (setting [6]).
On to `Cc1ccc(S(=O)(=O)Nc2ccc(Cl)cc2NS(=O)(=O)c2ccc(C)cc2)cc1` [Compound 6, N-[4-chloro-2-(4-toluenesulfonylamino)-phenyl]-4-toluenesulfonamide], for which the IC50 in assay [2] (setting [5]) and in assay [3] (setting [5]) was over 222 µM throughout.
Regarding `Cc1ccc(S(=O)(=O)Nc2ccc(-n3cnc4ccccc43)cc2NS(=O)(=O)c2ccc(C)cc2)cc1` [Compound 17b, N-[4-(benzimidazol-1-yl)-2-(4-toluenesulfonylamino)-phenyl]-4-toluenesulfonamide], the results for the IC50 in assay [2] (setting [5]) and in assay [3] (setting [5]) were 83 µM and 21 µM, respectively.
Turning to `Cc1ccc(S(=O)(=O)Nc2cc(NCc3cccnc3)c([N+](=O)[O-])cc2NS(=O)(=O)c2ccc(C)cc2)cc1` [Compound 9d, N-[5-nitro-4-[(pyridin-3-ylmethyl)-amino]-2-(4-toluenesulfonylamino)-phenyl]-4-toluenesulfonamide], the IC50 in assay [3] (setting [4]) is over 176 µM. Further, the inhibition at 50 µg/mL in assay [3] (Table 2, compound at 50 μg/mL (starred values), read-out: % Inhibition Src (%), * = assayed at 50 μg/mL) turned out to be 19%.
Turning to `Cc1ccc(S(=O)(=O)Nc2cc(SCc3ccccc3Cl)ccc2N)cc1` [Compound 71kk, N-[2-amino-5-(2-chloro-benzylsulfanyl)-phenyl]-4-toluenesulfonamide], in assay [3] (read-out: % Inhibition at 15 μg/mL Src %), the inhibition at 15 µg/mL stood at 29%.
As for `COc1ccc(Oc2ccc3[nH]c(=O)n(S(=O)(=O)c4ccc(C)cc4)c3c2)cc1` [Compound 72a, 6-(4-methoxy-phenoxy)-1-(4-toluenesulfonyl)-1,3-dihydro-benzoimidazol-2-one], the inhibition at 15 µg/mL in assay [3] (Table 6, Formula V compounds, read-out: % Inhibition at 15 μg/mL Src (%)) is 21%.
